Measured values as given in PubChem BioAssay (NCI).
“And” between values parts separate entries of the source, which are not always exact repeats. Equal entries are not always repeated.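 Dose response: 5 concentrations. Exposure: 48 h. Format: 96-well plates. Endpoint: linear interpolation; highest concentration if not reached. The concentration for 50% growth inhibition is given as GI50. TGI marks complete inhibition of growth.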

Experiments:
Experiment in all cases: NCI anticancer screen, dose series, 48 h
CCRF-CEM leukemia = test system: CCRF-CEM leukemia
COLO 205 colon = test system: COLO 205 colon
MOLT-4 leukemia = test system: MOLT-4 leukemia
SK-OV-3 ovarian = test system: SK-OV-3 ovarian
SNB-19 CNS = test system: SNB-19 CNS
TK-10 renal = test system: TK-10 renal
A498 renal = test system: A498 renal

| SMILES | TGI (CCRF-CEM leukemia) | TGI (COLO 205 colon) | TGI (MOLT-4 leukemia) | TGI (SK-OV-3 ovarian) | TGI (SNB-19 CNS) | TGI (TK-10 renal) | TGI (A498 renal) | GI50 (A498 renal) | GI50 (CCRF-CEM leukemia) | GI50 (COLO 205 colon) | GI50 (MOLT-4 leukemia) | GI50 (SK-OV-3 ovarian) | GI50 (SNB-19 CNS) | GI50 (TK-10 renal) |
| --- | --- | --- | --- | --- | --- | --- | --- | --- | --- | --- | --- | --- | --- | --- |
| CC1=CC(O)(c2ccc(-c3ccccc3Cl)cc2)OC1=O (centres undefined) | > 100 µM | > 100 µM | > 100 µM | > 100 µM | > 100 µM | > 100 µM |  |  |  |  |  |  |  |  |
| CC(C)OP(=O)(OC(C)C)C(=NCCN=C(NNc1ccc([N+](=O)[O-])cc1)P(=O)(OC(C)C)OC(C)C)NNc1ccc([N+](=O)[O-])cc1 | > 100 µM | 29.6 µM | > 100 µM |  | > 100 µM | > 100 µM | 60.3 µM |  |  |  |  |  |  |  |
| CCOC(=O)C(=C=C=C(c1ccccc1)c1ccccc1)C(=O)OCC | 15.1 µM | 32.5 µM | 30.8 µM | 50.3 µM | 55.4 µM | 31.3 µM | 78.9 µM |  |  |  |  |  |  |  |
| CC(=O)OC1COC(n2ccc3cc(Br)c([N+](=O)[O-])cc32)C(OC(C)=O)C1OC(C)=O (centres undefined) | 81.7 µM | 50 µM |  | > 100 µM | > 100 µM | 81.7 µM | 78.9 µM |  |  |  |  |  |  |  |
| Cn1c2ccccc2c2cc(-c3ccccc3)c3c(c21)C(=O)c1ccccc1C3=O | 33 µM | 94.3 µM | 92.7 µM | > 100 µM | > 100 µM | > 100 µM | > 100 µM |  |  |  |  |  |  |  |
| Brc1ccccc1C1SCc2nc3ccccc3n21 (centres undefined) | > 100 µM | 32.1 µM | > 100 µM | 56.7 µM |  | 49.3 µM |  |  |  |  |  |  |  |  |
| CCc1cc(Cc2cc(CC)c(NC(=O)C(=O)Cc3ccccn3)c(CC)c2Cl)c(Cl)c(CC)c1NC(=O)C(=O)Cc1ccccn1 | > 100 µM | > 100 µM | > 100 µM | > 100 µM | > 100 µM | > 100 µM | > 100 µM |  |  |  |  |  |  |  |
| O=c1cc(-c2ccccc2)oc2cc(OCCCOc3ccc4c(=O)cc(-c5ccccc5)oc4c3)ccc12 | > 100 µM | > 100 µM | > 100 µM | > 100 µM | > 100 µM | > 100 µM |  |  |  |  |  |  |  |  |
| COc1ccc(S(=O)(=O)NNS(C)(=O)=O)cc1 | > 100 µM | > 100 µM | > 100 µM |  | > 100 µM | > 100 µM | > 100 µM |  |  |  |  |  |  |  |
| CN(C)c1nc(=Nc2ccc(N=c3nc(N(C)C)ss3)cc2)ss1 | 27.7 µM | 70.6 µM | 51.3 µM | > 100 µM | > 100 µM | > 31.6 µM | > 79.3 µM |  |  |  |  |  |  |  |
| CC(C)=Cc1cc(C(=O)Nc2ccc(Cl)c(Cl)c2)nc(N)n1 |  |  | > 100 µM |  | > 100 µM | > 100 µM | > 100 µM |  |  |  |  |  |  |  |
| O=S1(=O)OCCOS(=O)(=O)C1Br | > 100 µM | > 100 µM | > 100 µM | > 100 µM | > 100 µM | > 100 µM | > 100 µM |  |  |  |  |  |  |  |
| CC(=O)/C(=C\c1cccc([N+](=O)[O-])c1)C(=O)Nc1ccccc1C | > 100 µM |  | > 100 µM | > 100 µM | > 100 µM | > 100 µM |  |  |  |  |  |  |  |  |
| CCOC(=O)NC(=O)c1cn(CCCO)c(=O)[nH]c1=O | > 100 µM | > 100 µM | > 100 µM | > 100 µM | > 100 µM | > 100 µM | > 100 µM |  |  |  |  |  |  |  |
| [Cl-].[La+3].[O-]/N=C(\c1ccccc1)c1ccccn1.[O-]/N=C(\c1ccccc1)c1ccccn1.[O-]/N=C(\c1ccccc1)c1ccccn1 | > 100 µM | > 100 µM | > 100 µM | > 100 µM | > 100 µM | > 100 µM | > 100 µM | 77.6 µM | 25.7 µM | 46.8 µM | 37.6 µM | 50.8 µM | 50.5 µM | > 74.4 µM |
| Clc1ccc(C(c2ccc(Cl)cc2)c2ccccn2)cc1 | 48.1 µM |  | 56.6 µM | 86.5 µM | 51.5 µM | 45.3 µM |  |  |  |  |  |  |  |  |
| C#CC1(O)CCC2C3CCc4cc(Oc5nc(F)nc(-c6c7ccccc7c7sc8ccccc8n67)n5)ccc4C3CC[C@@]21C (some centres undefined) | > 100 µM | > 100 µM | > 100 µM |  | > 100 µM | > 100 µM |  |  |  |  |  |  |  |  |
| Cc1ccc(NC(=O)c2cc3cc(N=Nc4ccccc4C(=O)O)ccc3oc2=O)cc1 | > 100 µM | > 100 µM | > 100 µM | > 100 µM | > 100 µM | > 100 µM |  |  |  |  |  |  |  |  |
| CCCCCCN(CCCCCC)C(=O)Cc1c2n(c3ccccc13)Cc1ccccc1-2 | 90.1 µM | > 100 µM | > 100 µM | > 100 µM | > 100 µM | > 100 µM |  |  |  |  |  |  |  |  |
| CN(C)c1ccc(/C=C(\NC(=O)c2ccccc2)c2nc3ncncc3[nH]2)cc1 | > 100 µM | > 100 µM | > 100 µM | > 100 µM | > 100 µM | > 100 µM |  |  |  |  |  |  |  |  |
| COC(OC)C(C)CC(=O)N(C)C (centres undefined) | > 100 µM | > 100 µM | > 100 µM | > 100 µM | > 100 µM | > 100 µM | > 100 µM |  |  |  |  |  |  |  |
| C[Si](C)(C)C1(Sc2ccccc2)SCCCS1 | 77.8 µM | > 100 µM | 85.1 µM | > 100 µM | > 100 µM | > 100 µM | > 100 µM |  |  |  |  |  |  |  |
| O=C(/C=C\c1ccc(Cl)c(Cl)c1)c1ccc(Cl)cc1Cl | 64.4 µM |  | 7.86 µM and 48.4 µM | 51 µM | 56.2 µM |  | > 100 µM | > 100 µM | 4.62 µM |  |  |  |  |  |
